# Assay results from US20230115274A1, “COMPOUNDS AND COMPOSITIONS FOR TREATING CONDITIONS ASSOCIATED WITH STING ACTIVITY” (IFM Due, Inc., priority 2019, published 2023).
# pEC50: −log10 of the molar value.
# Molecular target: T1, hSTING (Homo sapiens, UniProt Q86WV6, G230A/H232R/R293Q/R71H)
# T1 construct: host or cells: THP1-Dual KO-IFNAR2 cells
# Assay: STING reporter assay (luciferase) in THP1-Dual KO-IFNAR2 cells stimulated with 2′3′cGAMP
# Type: cell-based
# Details: 2′3′cGAMP 15 μM, 24 h, class symbols
# Method in brief: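 THP1-Dual KO-IFNAR2 cells (2×10E6 cells/mL) were treated with compound at 0.0017-100 μM final plus 15 μM final 2′3′cGAMP delivered with Lipofectamine 2000. After 24 h at 37° C., secreted luciferase in supernatant was read by QUANTI-Luc luminescence and EC50 values were fitted.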
# T1 sequence (Q86WV6 whole entry R71H/G230A/H232R/R293Q): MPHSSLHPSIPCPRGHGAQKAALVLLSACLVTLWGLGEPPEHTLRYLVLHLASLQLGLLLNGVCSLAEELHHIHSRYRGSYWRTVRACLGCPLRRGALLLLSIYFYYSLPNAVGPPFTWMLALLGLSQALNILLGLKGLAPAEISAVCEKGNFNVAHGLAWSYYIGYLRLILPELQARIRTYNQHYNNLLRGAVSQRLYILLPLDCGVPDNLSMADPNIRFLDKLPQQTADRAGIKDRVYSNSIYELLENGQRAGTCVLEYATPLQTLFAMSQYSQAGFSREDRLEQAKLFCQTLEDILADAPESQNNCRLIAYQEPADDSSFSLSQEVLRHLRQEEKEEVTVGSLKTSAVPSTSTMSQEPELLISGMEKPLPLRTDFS
row,Compound,pEC50
1,"COc1ccc2[nH]cc(NC(=O)Nc3cnc(C4CCC(F)(F)CC4)c(F)c3)c2n1 [Compound 229, 1-(6-(4,4-difluorocyclohexyl)-5-fluoropyridin-3-yl)-3-(5-methoxy-1H-pyrrolo[3,2-b]pyridin-3-yl)urea]",6.00 to 6.70
2,"O=C(Nc1cnc(N2CCC(F)(F)CC2)c(F)c1)Nc1c[nH]c2cccnc12 [Compound 230, 1-(6-(4,4-difluoropiperidin-1-yl)-5-fluoropyridin-3-yl)-3-(1H-pyrrolo[3,2-b]pyridin-3-yl)urea]",6.00 to 6.70
3,"COc1ccc2[nH]cc(NC(=O)Nc3cnc(N4CC(F)(F)C4)c(Cl)c3)c2n1 [Compound 231, 1-(5-chloro-6-(3,3-difluoroazetidin-1-yl)pyridin-3-yl)-3-(5-methoxy-1H-pyrrolo[3,2-b]pyridin-3-yl)urea]",6.00 to 6.70
4,"COc1ccc2[nH]cc(NC(=O)Nc3cnc(N4CC(F)(F)C4)c(F)c3)c2n1 [Compound 232, 1-(6-(3,3-difluoroazetidin-1-yl)-5-fluoropyridin-3-yl)-3-(5-methoxy-1H-pyrrolo[3,2-b]pyridin-3-yl)urea]",5.30 to 6.00
5,"COc1ccc2[nH]cc(NC(=O)Nc3cnc(C4CCC(F)(F)CC4)c(Cl)c3)c2n1 [Compound 233, 1-(5-chloro-6-(4,4-difluorocyclohexyl)pyridin-3-yl)-3-(5-methoxy-1H-pyrrolo[3,2-b]pyridin-3-yl)urea]",6.70 to 7.40
6,"O=C(Nc1cnc(C2CCC(F)(F)CC2)c(F)c1)Nc1c[nH]c2cccnc12 [Compound 234, 1-(6-(4,4-difluorocyclohexyl)-5-fluoropyridin-3-yl)-3-(1H-pyrrolo[3,2-b]pyridin-3-yl)urea]",6.00 to 6.70
7,"O=C(Nc1cc(Cl)c(N2CCC(F)(F)CC2)cn1)Nc1c[nH]c2cccnc12 [Compound 235, 1-(4-chloro-5-(4,4-difluoropiperidin-1-yl)pyridin-2-yl)-3-(1H-pyrrolo[3,2-b]pyridin-3-yl)urea]",5.30 to 6.00
8,"O=C(Nc1cnc(N2CCC(F)(F)CC2)c(Cl)c1)Nc1c[nH]c2ccc(Br)nc12 [Compound 236, 1-(5-bromo-1H-pyrrolo[3,2-b]pyridin-3-yl)-3-(5-chloro-6-(4,4-difluoropiperidin-1-yl)pyridin-3-yl)urea]",6.70 to 7.40
9,"N#Cc1cc(NC(=O)Nc2c[nH]c3cccnc23)cnc1C1CCC(F)(F)CC1 [Compound 237, 1-(5-cyano-6-(4,4-difluorocyclohexyl)pyridin-3-yl)-3-(1H-pyrrolo[3,2-b]pyridin-3-yl)urea]",5.30 to 6.00
10,"COc1ccc2[nH]cc(NC(=O)Nc3ccc(C4CC(F)(F)C4)c(F)c3)c2n1 [Compound 238, 1-(4-(3,3-difluorocyclobutyl)-3-fluorophenyl)-3-(5-methoxy-1H-pyrrolo[3,2-b]pyridin-3-yl)urea]",6.00 to 6.70
11,"O=C(Nc1ccc(C2CC(F)(F)C2)c(F)c1)Nc1c[nH]c2cccnc12 [Compound 239, 1-(4-(3,3-difluorocyclobutyl)-3-fluorophenyl)-3-(1H-pyrrolo[3,2-b]pyridin-3-yl)urea]",6.00 to 6.70
12,"O=C(Nc1cnc(N2CCC(F)(F)CC2)c(Cl)c1)Nc1c[nH]c2cc(Br)cnc12 [Compound 240, 1-(6-bromo-1H-pyrrolo[3,2-b]pyridin-3-yl)-3-(5-chloro-6-(4,4-difluoropiperidin-1-yl)pyridin-3-yl)urea]",4.00 to 5.30
13,"CC1(C)CN(c2ncc(NC(=O)Nc3c[nH]c4cccnc34)cc2Cl)CCO1 [Compound 241, 1-(5-chloro-6-(2,2-dimethylmorpholino)pyridin-3-yl)-3-(1H-pyrrolo[3,2-b]pyridin-3-yl)urea]",4.00 to 5.30
14,"COc1ccc2[nH]cc(NC(=O)Nc3cnc(C4CC(F)(F)C4)c(Cl)c3)c2n1 [Compound 243, 1-(5-chloro-6-(3,3-difluorocyclobutyl)pyridin-3-yl)-3-(5-methoxy-1H-pyrrolo[3,2-b]pyridin-3-yl)urea]",6.00 to 6.70

# Same assay, conditions: 2′3′cGAMP 15 μM, 24 h, numeric bounds
row,Compound,pEC50
1,"O=C(Nc1cnc(N2CC(F)(F)C2)c(Cl)c1)Nc1c[nH]c2cccnc12 [Compound 242, 1-(5-chloro-6-(3,3-difluoroazetidin-1-yl)pyridin-3-yl)-3-(1H-pyrrolo[3,2-b]pyridin-3-yl)urea]",< 5.00
